Measurements published in publication PMC6895180 (Nature Communications, 2019).
Where “and” joins values, the source holds several entries; their conditions need not be identical. Identical values can stand only once. Like-named read-outs stand apart in the source and are kept apart here. Marks after values point to notes of the source that are not given here.

What was measured:
T. brucei ADKIN = biological target: T1, T. brucei ADKIN (Trypanosoma brucei brucei, UniProt Q584S6); experiment: ADKIN assay (phosphorylation by purified recombinant enzyme, HPLC); assay type: biochemical
T1 sequence (Q584S6 1-345): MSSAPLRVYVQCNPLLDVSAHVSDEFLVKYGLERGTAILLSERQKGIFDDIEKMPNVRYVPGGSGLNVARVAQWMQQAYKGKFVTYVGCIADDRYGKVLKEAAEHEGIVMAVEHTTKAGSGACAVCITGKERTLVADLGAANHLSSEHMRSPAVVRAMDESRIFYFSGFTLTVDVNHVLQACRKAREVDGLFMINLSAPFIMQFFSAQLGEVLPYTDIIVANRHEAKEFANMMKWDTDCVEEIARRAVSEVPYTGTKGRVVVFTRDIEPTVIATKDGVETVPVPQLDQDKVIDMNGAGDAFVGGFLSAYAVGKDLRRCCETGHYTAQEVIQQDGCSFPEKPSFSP
Description: The T. brucei ADKIN enzyme was diluted in a buffer containing 0.05% (v/v) Tween-20, 50 mM KCl, 0.1 mM dithiothreitol, and 50 mM Tris-HCl, pH 7.5 (dilution buffer), prior to use in the assay. The final assay mixture contained 12.5 ng T. brucei ADKIN, a range between 50 and 1000 µM of nucleoside 9 (or 1000 µM deoxyadenosine in the control reaction), 100 mM KCl, 10 mM MgCl2, 0.5 mM ATP, 5 mM potassium phosphate and 50 mM Tris-HCl, pH 7.5. The assay was incubated at 37 °C for 30 min, and subsequently heated for 2 min at 100 °C to inactivate the enzyme, diluted with 2 volumes of water, centrifuged through a Nanosep 3k Omega filter and mixed 1:1:2 with water and mobile phase. The HPLC analysis was performed on a 2.1 × 150 mm ACE Excel C18 column using a mobile phase composition 4A:76B:20C (see nucleotide pool analysis, Supplementary Information for details). Using these conditions, consecutive samples could be loaded (Supplementary Fig. 12). After 4–5 samples, the column was washed with high percent A (80A:20C) to remove bound ADP and ATP before re-equilibrating the column to original conditions.

[1] = Metabolic stability, pooled human liver microsomes (phase I and II)
Description: (§1) Mouse, rat, and pooled human liver microsomes were purchased from a commercial source (Corning) and stored at -80 °C. NADPH generating system solutions A and B and UGT reaction mix solutions A and B (Corning) were kept at -20°C. The test compound and the reference compounds diclofenac (MW […]
(§2) microsomal stability assay was carried out based on the BD Biosciences Guidelines for Use (TF000017 Rev1.0) with minor adaptations. Metabolic stability of the compounds was studied through the CYP450 superfamily (phase I metabolism) by fortification with reduced nicotinamide adenine dinucleotide phosphate (NADPH) and through uridine glucuronosyl-transferase (UGT) enzymes (phase II metabolism) by fortification with uridine diphosphate glucuronic acid (UDPGA). For the CYP450 and other NADPH dependent enzymes, both compounds were incubated at 5 µM together with 0.5 mg mL-1 liver microsomes in potassium phosphate buffer in a reaction started by the addition of 1 mM NADPH […]
(§3) At these time points, 20 µL was withdrawn from the reaction mixture and 80 µL cold acetonitrile (ACN) containing the internal standard tolbutamide, was added to inactivate the enzymes and precipitate the proteins. The mixture was vortexed for 30 s and centrifuged at 4 °C for 5 min at 15,000 rpm. The supernatant was stored at -80°C until analysis. For the UGT enzymes, both compounds were incubated at 5 µM together with 0.5 mg mL-1 liver microsomes in a reaction started by the addition of 2 mM UDPGA cofactor. The corresponding loss of parent compound was determined using liquid chromatography (UPLC) (Waters AquityTM) coupled with tandem quadrupole mass spectrometry (MS²) (Waters XevoTM), equipped with an electrospray ionization (ESI) interface and operated in multiple reaction monitoring (MRM) mode. […]

[2] = Metabolic stability, rat liver microsomes (phase I and II)
Description: as §1, §2, §3

[3] = Metabolic stability, mouse liver microsomes (phase I and II)
Description: as §1, §2, §3

[4] = test system: B48: pentamidine, diminazene and melaminophenyl arsenical resistant T. brucei line; experiment: microbe, parasite or virus in culture; assay type: cell-based, Trypanosoma brucei brucei
[5] = Cytotoxicity on MRC-5 fibroblasts (resazurin); assay type: cell-based, human; conditions: human, MRC-5SV2 human embryonic lung fibroblasts
Description: Cytotoxicity assays were performed on MRC-5SV2 (Sigma-Aldrich/ECACC, catalogue number 84100401) human embryonic lung fibroblasts, which were cultured in minimum essential medium with Earle’s salt medium, supplemented with L-glutamine, NaHCO3 and 5% inactivated foetal calf serum. All cultures and assays were conducted at 37 °C with 5% CO2. Ten microliters of the aqueous compound dilutions were added to 190 µL of MRC-5SV2 (3 × 10^4 cells mL^−1). Cell growth was compared to untreated control wells (100% cell growth) and medium control wells (0% cell growth). After a 3-day incubation, cell viability was assessed fluorimetrically after the addition of 50 μL resazurin per well (final concentration of 10 µg mL^−1). After 4 h at 37 °C, fluorescence was measured (λex 550 nm, λem 590 nm). The results were expressed as percentage reduction in cell growth/viability compared to control wells and an EC50 was determined.

[6] = test system: T. b. rhodesiense STIB-900; experiment: microbe, parasite or virus in culture; assay type: cell-based, Trypanosoma brucei rhodesiense; conditions: Trypanosoma brucei, RHODESIENSE
Description: (§4) Drug susceptibility tests with Lister 427WT, TbAT1-KO[48], B48[26] and ISMR1[27] were performed using an assay based on the viability indicator dye resazurin in 96-well plates, each well containing 2 × 10^4 cells. The plates were incubated for 48 h with a doubling dilution series of the test compounds in HMI-9/fetal bovine serum at 37 °C/5% CO2 (23 dilutions starting at 100 µM, except for the pentamidine control (50 µM)), after which resazurin (20 µL of 125 µg mL^−1 resazurin sodium salt solution was added to each well (containing 200 µL of cells and test compound)) was added to each well and the plates incubated for another 24 h. Fluorescence was determined using a FLUOstar Optima (BMG Labtech, Durham, NC) and the results fitted to a sigmoid curve with variable slope using Prism 5.0 or Prism 7.04 (GraphPad, San Diego, CA).
(§5) Susceptibility assays with T. brucei Squib 427[49] or T. b. rhodesiense STIB-900[50] were performed under similar conditions as above, but using 10 concentrations of a 4-fold compound dilution series starting at 64 µM. Trypanosoma brucei Squib 427 was seeded at 1.5 × 10^4 parasites/well and T. b. rhodesiense at 4 × 10^3 parasites per well, followed by the addition of resazurin (final concentration of 10 µg mL^−1) after 24 h (T. brucei) or 6 h (T. b. rhodesiense).

[7] = test system: TbAT1-KO: T. brucei cell line lacking the TbAT1(P2) transporter gene; experiment: microbe, parasite or virus in culture; assay type: cell-based, Trypanosoma brucei brucei
Description: as §4

[8] = test system: ISMR1: isometamidium-resistant T. brucei cell line; experiment: microbe, parasite or virus in culture; assay type: cell-based, Trypanosoma brucei brucei
Description: as §4

[9] = test system: T. b. brucei Lister 427WT; experiment: Drug susceptibility test (resazurin), Lister 427WT; assay type: cell-based, Trypanosoma brucei brucei
Description: as §4

T. brucei Squib 427 = experiment: microbe, parasite or virus in culture; assay type: cell-based, Trypanosoma brucei brucei
Description: as §4, §5

P1 transporter = assay type: cell-based, Trypanosoma brucei; conditions: mean ± SEM, n = 3
Description: Non-specific association of radiolabel with the cell pellet was determined using an identical incubation in the presence of saturating (1 mM) unlabelled adenosine.

[10] = resistance factor vs Lister 427WT

Nc1ncnc2c1ncn2[C@H]1C[C@H](O)[C@@H](CO)O1 [dAdo, 2′-deoxyadenosine, reference compound]
product concentration (Conc.9-MP) (T. brucei ADKIN; TbAK control reaction, [dAdo] 1000 µM): 34.4568 and 29.4118 and 31.8858
Act (U/mg) (T. brucei ADKIN; TbAK, substrate 1000 µM): 4.594 U/mg and 3.922 U/mg and 4.251 U/mg

OC(Cn1cncn1)(Cn1cncn1)c1ccc(F)cc1F [Fluco, fluconazole, reference compound]
% parent compound remaining ([1]; CYP - NADPH, 15 min): 110%
% parent compound remaining ([1]; CYP - NADPH, 30 min): 80%
% parent compound remaining ([1]; CYP - NADPH, 60 min): 103%
% parent compound remaining ([1]; UGT Enzymes, 15 min): 103%
% parent compound remaining ([1]; UGT Enzymes, 30 min): 116%
% parent compound remaining ([1]; UGT Enzymes, 60 min): 106%
% parent compound remaining ([2]; CYP - NADPH, 15 min): 110%
% parent compound remaining ([2]; CYP - NADPH, 30 min): 104%
% parent compound remaining ([2]; CYP - NADPH, 60 min): 96%
% parent compound remaining ([2]; UGT Enzymes, 15 min): 111%
% parent compound remaining ([2]; UGT Enzymes, 30 min): 105%
% parent compound remaining ([2]; UGT Enzymes, 60 min): 112%
% parent compound remaining ([3]; CYP - NADPH, 15 min): 111±12%
% parent compound remaining ([3]; CYP - NADPH, 30 min): 93±19%
% parent compound remaining ([3]; CYP - NADPH, 60 min): 100±12%
% parent compound remaining ([3]; UGT Enzymes, 15 min): 99±19%
% parent compound remaining ([3]; UGT Enzymes, 30 min): 104±3%
% parent compound remaining ([3]; UGT Enzymes, 60 min): 100±6%

Nc1ncnc2c1ccn2[C@H]1C[C@H](O)[C@@H](CO)O1 [Compound 11, 2′-Deoxy-TUB]
EC50 ([4]; Trypanosoma brucei, mean and SEM, n = 3, read-out: B48 EC50): 41.8 ± 1.4 µM
EC50 ([4]; Trypanosoma brucei, source data, read-out: B48 EC50, single determinations): 40.3 µM
RF (B48) [4, 10]: 0.43**
EC50 ([4]; source data, read-out: B48 EC50, single determinations): 43.2 µM and 40.8 µM
EC50 at 3 day ([5]; cytotoxicity in human MRC-5 fibroblasts, mean and SEM, read-out: MRC-5 EC50): > 64 µM
EC50 at 3 day ([5]; source data, read-out: MRC-5 EC50, single measurements): > 64 µM
EC50 ([6]; Alamar blue cell viability assay, mean and SEM, read-out: T. b. rhodesiense EC50): > 64 µM
EC50 ([6]; source data, read-out: T. brucei rhodesiense EC50, single measurements): > 64 µM
EC50 ([7]; Trypanosoma brucei, read-out: TbAT1-KO EC50, mean and SEM, n = 3): 43.7 ± 2.2 µM
EC50 ([7]; Trypanosoma brucei, read-out: TbAT1-KO EC50, single determinations, source data): 41.5 µM
EC50 ([7]; read-out: TbAT1-KO EC50, single determinations, source data): 45.9 µM and 46.9 µM
RF (TbAT1-KO) ([7]; resistance factor: ratio of EC50 of resistant and Lister 427WT): 0.45**
EC50 ([8]; Trypanosoma brucei, mean and SEM, n = 3, read-out: ISMR1 EC50): 77.8 ± 1.7 µM
EC50 ([8]; Trypanosoma brucei, source data, read-out: ISMR1 EC50, single determinations): 77.3 µM
RF (ISMR1) [8, 10]: 0.81
EC50 ([8]; source data, read-out: ISMR1 EC50, single determinations): 81 µM and 75.1 µM
EC50 ([9]; Trypanosoma brucei, mean and SEM, n = 3, read-out: Lister 427 EC50): 96.4 ± 13.8 µM
EC50 ([9]; Trypanosoma brucei, source data, read-out: s427 EC50, single determinations): 82.6 µM
EC50 ([9]; source data, read-out: s427 EC50, single determinations): 97.4 µM
EC50 (T. brucei Squib 427; Trypanosoma brucei, Alamar blue cell viability assay, mean and SEM, read-out: T. b. brucei EC50): 48 ± 1 µM
EC50 (T. brucei Squib 427; Trypanosoma brucei, source data, read-out: T. brucei brucei EC50, Average): 48.5 µM
EC50 (T. brucei Squib 427; Trypanosoma brucei, source data, read-out: T. brucei brucei EC50, single measurements): 49.9 µM
SI (MRC/T.b. brucei) (T. brucei Squib 427; selectivity index): 1.3
EC50 (T. brucei Squib 427; source data, read-out: T. brucei brucei EC50, single measurements): 47.2 µM

O=C(O)Cc1ccccc1Nc1c(Cl)cccc1Cl [Diclo, diclofenac, reference compound]
% parent compound remaining ([1]; CYP - NADPH, 15 min): 35±0.4%
% parent compound remaining ([1]; CYP - NADPH, 30 min): 14±0.8%
% parent compound remaining ([1]; CYP - NADPH, 60 min): 2±0.4%
% parent compound remaining ([1]; UGT Enzymes, 15 min): 17±1.1%
% parent compound remaining ([1]; UGT Enzymes, 30 min): 14±0.7%
% parent compound remaining ([1]; UGT Enzymes, 60 min): 10±0.1%
% parent compound remaining ([2]; CYP - NADPH, 15 min): 59±9%
% parent compound remaining ([2]; CYP - NADPH, 30 min): 39±2.6%
% parent compound remaining ([2]; CYP - NADPH, 60 min): 10±2.9%
% parent compound remaining ([2]; UGT Enzymes, 15 min): 28±4.5%
% parent compound remaining ([2]; UGT Enzymes, 30 min): 14±1.5%
% parent compound remaining ([2]; UGT Enzymes, 60 min): 11±0.9%
% parent compound remaining ([3]; CYP - NADPH, 15 min): 83±14%
% parent compound remaining ([3]; CYP - NADPH, 30 min): 67±5.7%
% parent compound remaining ([3]; CYP - NADPH, 60 min): 52±0.3%
% parent compound remaining ([3]; UGT Enzymes, 15 min): 42±21%
% parent compound remaining ([3]; UGT Enzymes, 30 min): 46±10%
% parent compound remaining ([3]; UGT Enzymes, 60 min): 34±9%

Nc1ncnc2c1ncn2[C@@H]1O[C@H](CO)[C@@H](O)[C@H]1O [Adenosine, reference compound]
Km (P1 transporter): 0.12 ± 0.02 µM
